Experimental data: paper PMC12297997, “Differential Emodepside Efficacy in Drug-Resistant and Drug-Susceptible Ancylostoma caninum Highlights Variability in Potassium Channel Activity” (Tropical Medicine and Infectious Disease, 2025)
Read-outs that look alike come from different tables or passages of the source.

What was measured:
[1] = test system: Ancylostoma caninum L3, drug-susceptible (WMD) isolate; experiment: In vitro L3 larval survival assay, drug-susceptible WMD isolate; format: cell-based
Experimental: (§1) The wild-type (WMD) and triple-anthelmintic-resistant (BCR) isolates of A. caninum used in this study have been previously described. […] Both isolates were maintained in beagles according to established protocols.
(§2) Stock solutions of pyrantel, ivermectin, and emodepside were prepared in appropriate solvent mixtures of DMSO and BU buffer (50 mM Na2HPO4, 22 mM KH2PO4, 70 mM NaCl, pH 6.8). To account for solubility differences, pyrantel was prepared in 20% DMSO, ivermectin in 4% DMSO, and emodepside in 25% DMSO. Penitrem A was dissolved in 100% DMSO to make a 500 µM stock solution. A vehicle control solution was also prepared for each drug, containing the maximum DMSO concentration used in the stock solutions to ensure that solvent effects across treatments were adequately controlled.
(§3) Infective A. caninum L3 were collected from coproculture at least 7 days post-culture using a modified Baermann method and stored in BU in a 50 mL culture flask at room temperature for up to four weeks prior to use. The survival assay to evaluate the response of A. caninum L3 to various anthelmintics was adapted from a previously established motility assessment study.
(§4) Prior to use, L3 were surface sterilized by incubation in 1% (v/v) HCl for 30 min, followed by two washes with sterile BU buffer. The sterilized larvae were resuspended in BU to a concentration of 75 L3 per 90 µL. Larvae were transferred in aliquots of 90 µL to individual wells in a 96-well plate, and 10 µL of the appropriate drug or control solution was added to each well, bringing the final volume to 100 µL. Plates were incubated at room temperature in the dark for 24 h.
(§5) Following incubation, survival was assessed by adding 50 microliters of 50° C water to each well immediately before counting. […] For each well, the total number of living and dead L3 were counted, and percent survival was calculated as below:(1) Survival (%)=[…]
(§6) Microsoft Excel was used to normalize raw survival percentages to their respective controls and calculate standard deviation for each condition. Statistical analysis was performed using GraphPad Prism (ver. 10, GraphPad Software, La Jolla, CA, USA). Using the mean, standard deviation, and sample size calculated in Excel, multiple unpaired t-tests were performed to determine the individual variance in means between WMD and BCR.

[2] = test system: Ancylostoma caninum L3, triple-anthelmintic-resistant (BCR) isolate; experiment: In vitro L3 larval survival assay, triple-anthelmintic-resistant BCR isolate; format: cell-based; conditions: for Difference in mean survival between BCR and WMD: BCR versus WMD L3, across all tested concentrations (4–40 µg/mL), two-tailed unpaired t-test, p < 0.0001
Experimental: as §1, §2, §3, §4, §5, §6

[3] = cited from earlier work; for Corresponding Cmax: po
MADR A. caninum = test system: MADR A. caninum; set-up: method as in PMID 36520649; conditions: dogs infected with MADR A. caninum; cited from earlier work
[4] = stated without reference; cited from earlier work
[5] = test system: Ancylostoma caninum L3, drug-susceptible (WMD) isolate; experiment: Emodepside + penitrem A survival assay (SLO-1 modulation), WMD isolate; format: cell-based; conditions: 0.25 µM penitrem A + emodepside 7.5 µg/mL, 24 h, mean ± SD
Experimental: as §4, §5
(§7) To further investigate the specific mechanism of emodepside action, the SLO-1 channel inhibitor penitrem A was co-incubated with emodepside. The concentration of emodepside was kept constant (7.5 µg/mL) while that of penitrem A was titrated from 1 µM to 0.05 µM. […] Survival was assessed as above.
(§8) Microsoft Excel was used to normalize raw survival percentages to their respective controls and calculate standard deviation for each condition. […] Using the mean, standard deviation, and sample size calculated in Excel, multiple unpaired t-tests were performed to determine the individual variance in means between WMD and BCR.

[6] = test system: Ancylostoma caninum L3, triple-anthelmintic-resistant (BCR) isolate; experiment: Emodepside + penitrem A survival assay (SLO-1 modulation), BCR isolate; format: cell-based; conditions: 0.25 µM penitrem A + emodepside 7.5 µg/mL, 24 h, mean ± SD
Experimental: as §4, §5, §7, §8

With CN1CCCN=C1/C=C/c1cccs1 [Pyrantel, pyrantel pamoate] the “Percent survival of L3, normalized to vehicle control” value (from here on “Percent survival of L3, normalized”) ([1]; 100 µg/mL, 24 h, room temperature, dark, mean ± SD) was 43.9±13.7%, the “Mortality of L3” value ([1]; 10–50 µg/mL, 24 h) was “almost no mortality” and the “Percent survival of L3, normalized” value ([2]; BCR L3, 100 µg/mL, 24 h, room temperature, dark, mean ± SD, difference to WMD not significant (p = 0.054)) was 59.2±10.4%. The “Mortality of L3” value ([2]; BCR L3, 10–50 µg/mL, 24 h) was “almost no mortality”, the Cmax ([3]; in vivo, 100 mg/kg) was 110 ng/mL and the “Corresponding Cmax” value ([3]; in vivo) was 110 ng/mL.

In the case of emodepside, the “Percent survival of L3, normalized” value ([1]; 7.5 µg/mL, 24 h, mean ± SD) is reported as 13.1% ± 4.1, the “Percent survival of L3, normalized” value ([1]; 30 µg/mL (maximum dose tested), 24 h, mean ± SD) is reported as 3.4% ± 3.3 and the “IC50 (nonlinear regression of percent survival vs log concentration)” value ([1]; 24 h survival) is reported as 2.81 µg/mL. The “Surviving L3” value ([2]; BCR L3, 30 µg/mL (maximum dose tested), 24 h) was “none”, the “IC50 (nonlinear regression of percent survival vs log concentration)” value ([2]; BCR L3, 24 h survival) was 1.77 µg/mL and the “Percent survival of L3” value ([2]; BCR L3, starting at 7.5 µg/mL, 24 h) was “killed all BCR larvae”. The “Difference in percent survival between WMD and BCR” value ([2]; WMD versus BCR L3, 3 µg/mL (greatest difference)) was 21.8±4.4, the “Greater effectiveness than drugs from other classes in reducing fecal egg count” value (MADR A. caninum) was “at least 50%” and the “Corresponding Cmax” value ([3]; in vivo) was 37 ng/mL.

With ivermectin the “Normalized survival of L3” value ([1]; low dose 4 µg/mL, 24 h, room temperature, dark, mean ± SD) was 14.9±9.7%, the “Normalized survival of L3” value ([2]; BCR L3, low dose 4 µg/mL, 24 h, room temperature, dark, mean ± SD) was 54.2±11.4% and the “Difference in mean survival between BCR and WMD” value [2] was 39.0 ± 3.0%. The “Difference in mean survival between BCR and WMD” value ([2]; listed as ivermectin) was “approximately 40%”, the Aqueous solubility [4] was less than 10 µg/mL and the Cmax ([3]; typical therapeutic dose 150–200 mg/kg, single oral administration) was 38 to 46 ng/mL.

With penitrem A the “Percent survival of L3 co-incubated with emodepside” value [5] was 29.8% ± 11.5 and the “Percent survival of L3 co-incubated with emodepside” value [6] was 78.2% ± 13.8.
